Experimental data: US10940218B2, “Treatment of meningiomas using phenylbenzothiazole, stilbene, biphenylalkyne, or pyridine derivatives” (MAYO FOUNDATION FOR MEDICAL EDUCATION AND RESEARCH, priority 2012, dated 2021)
Entries after “also recorded” stand apart in the source; their conditions may differ.

Columns and labels:
[1] = tested on: other intracranial tumors and brain tissue sections; assay: Fluorescent tissue staining of other tumors and brain tissue; assay type: binding, human
Description: (§1) The Department of Pathology, Mayo Clinic Rochester Tumor Tissue Registry, contains tumor samples procured by autopsy and surgery. Meningiomas, brain metastases and other tumors were identified by searching CoPath, a Mayo Clinic electronic pathology database of tumors collected since 1982. Tumor type was confirmed by viewing H&E stained slides under a light microscope.
(§2) Fresh cut 5 μm thick sections were used. Each staining run included normal brain and Alzheimer diseased brain as controls. Fluorescent tissue staining and microscopy was performed similar to methods previously described at Ikonomovic M D, Klunk W E, Abrahamson E E, et al., “Post-mortem correlates of in vivo PiB-PET amyloid imaging in a typical case of Alzheimer's disease”, Brain: A Journal Of Neurology 2008; 131:1630-45. Meningioma and other brain tumor sections were stained with 100 nM CN-PiB, 100 nM of unlabeled PiB or with saline alone as a negative control. The staining protocol was as follows: deparaffinization and rehydration, 0.25% KMnO4 incubation, water wash, 1% K2S2O5/1% Oxalic Acid incubation, water wash, PBS wash, 6-CN-PiB/PiB/saline incubation, PBS wash, NaCl, K2HPO4, and KH2PO4 incubation, water wash, mount coverslip, and storage at 4° C. in the dark until imaged. Slides were imaged within five days of staining. Immunohistochemical staining of meningiomas for beta amyloid protein was performed using NCL-B-Amyloid mouse anti-human antibody per standard clinical protocol.
(§3) Tissue stain images were obtained on a Zeiss 510 confocal microscope with excitation at 405 nm, a 420-480 bandpass filter, and the laser set at 15% power.
(§4) Images were obtained with a C-Apochromat 40×/1.2 W lens.

[2] = tested on: meningioma tissue sections; assay: Fluorescent tissue staining of meningioma sections; assay type: binding, human; conditions: for location of staining within meningioma cells: tissue sections
Description: as §1, §2, §3, §4

meningiomas [3] = assay: FDG PET/CT imaging of meningiomas; assay type: in vivo, human
Description: (§5) An Alzheimer's imaging database of two hundred forty-one patients was reviewed. […] MRI reports of all patients were reviewed for possible meningiomas and other tumors. […] Tumors smaller than 7 millimeters are generally considered too small to be evaluated by PET or PET/CT.
(§6) The radiologic interpretations of MRI, CT and FDG PET/CT scans from a population of 834 people who participated in the population-based Mayo Clinic Study of Aging (MCSA) from March 2006 through September 2011 were reviewed for the presence of tumors or other brain lesions. (See, Kantarci K, Lowe V, Przybelski S A, et al., “Magnetic resonance spectroscopy, {beta}-amyloid load, and cognition in a population-based sample of cognitively normal older adults”, Neurology 2011; 77:951-8; and Roberts R O, Geda Y E, Knopman D S, et al., “The Mayo Clinic Study of Aging: design and sampling, participation, baseline measures and sample characteristics”, Neuroepidemiology 2008; 30:58-69.) Participants were randomly selected for recruitment in the MCSA from a population of older adult residents of Olmsted County, Minn., USA. Those with neurological, psychological or systemic illnesses were not excluded. Individuals with dementia, or those unable to be imaged for medical reasons were excluded. All patients were imaged with C11-PiB PET/CT, F18-FDG PET/CT and non-contrast MRI at least once as part of the study. Any additional patient imaging and clinical history was then reviewed.
(§7) PET imaging was performed as part of the Mayo Clinic Study of Aging as previously described. (See Kantarci K, Lowe V, Przybelski S A, et al., “Magnetic resonance spectroscopy, {beta}-amyloid load, and cognition in a population-based sample of cognitively normal older adults”, Neurology 2011; 77:951-8.) PiB PET/CT, then FDG PET/CT were performed on the same day. PET/CT imaging was performed on a 690XT or DRX PET/CT tomograph (GE Healthcare). The PET sinograms were reconstructed using a fully-3D OSEM algorithm into a 30 cm field of view; the pixel size was 1.2 mm and the slice thickness was 3.27 mm (DRX) or 1.96 mm (690XT). CT imaging was obtained immediately prior to PET acquisition and used for attenuation correction. Cerebral PiB retention, a marker of amyloid deposition, was measured as previously described. (See Kantarci K, Lowe V, Przybelski S A, et al. “Magnetic resonance spectroscopy, {beta}-amyloid load, and cognition in a population-based sample of cognitively normal older adults”, Neurology 2011; 77:951-8.)

non-meningioma tumors [4] = assay: FDG PET/CT imaging of non-meningioma tumors; assay type: in vivo, human
Description: as §5, §6
PET imaging was performed as part of the Mayo Clinic Study of Aging as previously described. (See Kantarci K, Lowe V, Przybelski S A, et al., “Magnetic resonance spectroscopy, {beta}-amyloid load, and cognition in a population-based sample of cognitively normal older adults”, Neurology 2011; 77:951-8.) PiB PET/CT, then FDG PET/CT were performed on the same day. PET/CT imaging was performed on a 690XT or DRX PET/CT tomograph (GE Healthcare). […] Cerebral PiB retention, a marker of amyloid deposition, was measured as previously described. […]

meningiomas [5] = assay: PiB PET/CT imaging of meningiomas in patients; assay type: in vivo, human
Description: (§8) An Alzheimer's imaging database of two hundred forty-one patients was reviewed. […] All patients had been imaged by at least one MRI, as well as by FDG-PET/CT and PET/CT using the compound of formula (V). MRI reports of all patients were reviewed for possible meningiomas and other tumors. […] The diagnostic confidence of the radiologists interpreting the studies varied slightly, depending on factors such as tumor location and previous imaging. […] Tumors smaller than 7 millimeters are generally considered too small to be evaluated by PET or PET/CT. This is an excepted limitation of PET or PET/CT as a modality. […] None of the meningiomas in the series would be classified as atypical or aggressive based on MRI or CT imaging. One presumed extracranial schwannoma was seen, showing mild uptake on FDG-PET/CT, but no uptake on PET/CT using the compound of formula (V).
as §6
(§9) Tumors found in any of the subjects were then categorized as possible meningiomas or non-meningiomas based on the reading of the reporting neuroradiologist. Possible meningiomas were further reviewed as a group. A more strict set of criteria were applied to select a subset of the possible meningiomas that were designated “high-likelihood meningiomas” for further analysis and were defined by (1) tumors that were confirmed to be enhancing on diagnostic MRI (obtained separately for clinical purposes) and (2) tumors that had greater than two years of follow-up imaging confirming no growth or slow growth (1-2 mm per year). When the lead diagnosis of the identified tumor was metastasis, the diagnosis was confirmed by biopsy or autopsy. All tumors smaller than 5 mm thick were excluded, given they fall below the generally accepted lower limits of PET/CT resolution.
(§10) PET imaging was performed as part of the Mayo Clinic Study of Aging as previously described. (See Kantarci K, Lowe V, Przybelski S A, et al., “Magnetic resonance spectroscopy, {beta}-amyloid load, and cognition in a population-based sample of cognitively normal older adults”, Neurology 2011; 77:951-8.) PiB PET/CT, then FDG PET/CT were performed on the same day. PET/CT imaging was performed on a 690XT or DRX PET/CT tomograph (GE Healthcare). The PET sinograms were reconstructed using a fully-3D OSEM algorithm into a 30 cm field of view; the pixel size was 1.2 mm and the slice thickness was 3.27 mm (DRX) or 1.96 mm (690XT). CT imaging was obtained immediately prior to PET acquisition and used for attenuation correction. Cerebral PiB retention, a marker of amyloid deposition, was measured as previously described. (See Kantarci K, Lowe V, Przybelski S A, et al. “Magnetic resonance spectroscopy, {beta}-amyloid load, and cognition in a population-based sample of cognitively normal older adults”, Neurology 2011; 77:951-8.) […]

non-meningioma tumors [6] = assay: PiB PET/CT imaging of non-meningioma tumors and lesions in patients; assay type: in vivo, human
Description: as §8, §6, §9, §10

normal adjacent tissues = assay: PiB PET/CT activity of normal adjacent tissues; assay type: in vivo, human
Description: as §6, §7

[7] = 100 nM stain, 5 μm sections, fluorescent microscopy
[8] = Example 1, presumed extracranial schwannoma
[9] = 16 high-likelihood meningiomas in 15 patients, C11-PiB PET/CT

CNc1ccc(-c2nc3ccc(C#N)cc3s2)cc1 [Formula 6-CN-PiB]
fluorescent staining ([1]; amyloid laden cerebral cortex, Alzheimer's disease, beta-amyloid plaques (positive control)): very intense fluorescence | fluorescent staining ([1]; lung cancer brain metastasis): scattered fluorescence; also recorded: staining in the nuclei of the cells | fluorescent staining ([1]; normal brain gray matter): almost no fluorescence | fluorescent staining ([1]; schwannoma, FIG. 6 Panel E): only trace fluorescence | fluorescent staining ([1]; some other tumors): Moderate 6-CN-PiB binding | fluorescent staining of meningioma tissue [2, 7]: stained positively; also recorded: intense fluorescence | fluorescent staining of meningioma tissue ([2]; 100 nM stain, 5 μm sections, fluorescent microscopy, listed as highly-fluorescent version of the compound of Formula (V)): accumulate | staining brightness versus other intracranial tumors ([2]; all meningiomas (n=7) vs other intracranial tumors (n=6)): qualitatively brighter | fluorescent staining of meningioma tissue ([2]; multiple WHO grade I transitional type meningiomas): stained positive | location of staining within meningioma cells [2]: outside the nuclei, within the cytoplasm and/or cell membrane | location of staining within meningioma cells ([2]; listed as highly-fluorescent version of the compound of Formula (V)): within the nucleus of the cells of the meningiomas

Fluorodeoxyglucose [FDG]
uptake on FDG-PET/CT (meningiomas [3]; Example 1, four meningiomas): no uptake | uptake on FDG-PET/CT (meningiomas [3]; Example 1, two meningiomas): mild uptake | FDG activity (meningiomas [3]; FIG. 3 meningioma): only trace FDG activity | FDG PET activity (meningiomas [3]; FIG. 4 meningioma, panels G-I): increased FDG PET activity | FDG activity (meningiomas [3]; seven of the 16 meningiomas): moderate to high FDG activity | uptake on FDG-PET/CT (non-meningioma tumors [4]; [8]): mild uptake | FDG PET/CT result (non-meningioma tumors [4]; FIG. 5 pituitary macroadenoma): positive | FDG PET activity (non-meningioma tumors [4]; melanoma and small cell lung cancer metastases): increased FDG PET activity; also recorded: positive

[11CH3]Nc1ccc(-c2nc3ccc(O)cc3s2)cc1 [PiB, [N-Methyl-^11C]2-(4′-methylaminophenyl)-6-hydroxybenzothiazole]
SUVmax (meningiomas [5]; 2.0 cm thick meningioma, focused irradiation 1 month prior to PiB PET/CT): 3.6 | SUVmax range (meningiomas [5]; [9]): 1.4-3.6 | average SUVmax (by body weight) (meningiomas [5]; [9]): 2.2 | uptake on PET/CT (meningiomas [5]; Example 1, one of seven presumed meningiomas, small size (~4 mm thick)): some uptake | uptake on PET/CT (meningiomas [5]; Example 1, six of seven presumed meningiomas, 241 patient database): intense uptake | uptake on PET/CT (meningiomas [5]; Example 2, recurrent orbital meningioma and falx meningioma in one patient): avid uptake | uptake on PET/CT (meningiomas [5]; Example 2, total of ten presumed meningiomas): show uptake | repeat imaging result (meningiomas [5]; Example 3, one patient imaged two times, many months in between): the same positive results | uptake on PET/CT (meningiomas [5]; Example 3, thirteen out of thirteen presumed meningiomas >5 mm within field of view): positive uptake | uptake on PET/CT (meningiomas [5]; Example 3, three non-diagnostic presumed meningiomas): some positive uptake | repeat imaging SUVmax of meningioma (meningiomas [5]; Example 4, two patients imaged with PiB PET/CT more than once): stable or increasing SUVmax | activity at the meningioma on PET/CT (meningiomas [5]; FIG. 1, Patient #1, right tentorium cerebelli mass): intense activity | activity at the meningioma on PET/CT (meningiomas [5]; FIG. 2, Patient #4, tuberculum sellae and planum sphenoidale mass): intense activity | SUVmax (meningiomas [5]; FIG. 3, 2.6 cm thick meningioma of the right tentorium): 2.8 | SUVmax (meningiomas [5]; FIG. 4 meningioma, Panels A-C): 2.8 | SUVmax (meningiomas [5]; FIG. 4 meningioma, panels G-I): 3.6 | SUVmax (meningiomas [5]; FIG. 5 Panel A, sella/supracellar region meningioma): 1.7 | SUVmax (meningiomas [5]; FIG. 5 Panel C, internal auditory canal meningioma): 1.9 | SUVmax (meningiomas [5]; FIG. 5 Panel E, lateral ventricle meningioma): 2.1 | SUVmax (meningiomas [5]; FIG. 5 Panel G, post-surgical meningioma recurrence): 1.5 | PiB PET/CT result (meningiomas [5]; all 16 meningiomas identified by strict imaging criteria): PiB activity greater than normal adjacent tissues; also recorded: clearly diagnostically positive | amount of harmful radiation to the patient (meningiomas [5]; injection and PET/CT imaging): within acceptable limits for diagnostic purposes | uptake on PET/CT (non-meningioma tumors [6]; Example 1, other tumors): little to no uptake | uptake on PET/CT (non-meningioma tumors [6]; [8]): no uptake | uptake on PET/CT (non-meningioma tumors [6]; Example 3, 25 types of tumors and non-neoplastic lesions incl. schwannoma, hamartoma, ependymoma, pituitary adenoma): only background uptake or no uptake | SUVmax (non-meningioma tumors [6]; FIG. 4 melanoma metastasis): 0.9 | SUVmax (non-meningioma tumors [6]; FIG. 4 small cell lung cancer metastasis): 1.1 | SUVmax (non-meningioma tumors [6]; FIG. 5 Panel B, pituitary macroadenoma): 0.9 | SUVmax (non-meningioma tumors [6]; FIG. 5 Panel D, schwannoma): 0.8 | SUVmax (non-meningioma tumors [6]; FIG. 5 Panel F, ependymoma): 0.4 | SUVmax (non-meningioma tumors [6]; FIG. 5 Panel H, postoperative changes/scarring): 0.6 | PiB PET/CT result (non-meningioma tumors [6]; all non-meningioma intracranial tumors (metastases, pituitary macroadenomas, schwannomas, ependymoma)): PiB activity equal or less than normal adjacent tissue; also recorded: negative | SUVmax (non-meningioma tumors [6]; all non-meningioma intracranial tumors identified): ≤ 1.1 | SUVmax (non-meningioma tumors [6]; bony lesions (hemangiomas, fibrous dysplasia, hyperostosis frontalis, osteoma)): < 1.0 | SUVmax (non-meningioma tumors [6]; extra-cranial tumors (sinus polyps, mucus retention cysts, mucocele, Warthin's tumors, inverted papilloma)): < 1.2 | PiB PET/CT result (non-meningioma tumors [6]; intracranial metastases (melanoma, small cell lung cancer)): negative with low activity | PiB activity (non-meningioma tumors [6]; non-tumorous lesions (strokes, arachnoid cysts, multiple sclerosis lesions)): only trace PiB activity | SUVmax (non-meningioma tumors [6]; vascular lesions (aneurysms, telangiectasias, cavernomas, venous angiomas)): ≤ 1.2 | average SUVmax (normal adjacent tissues; nearby normal bone): 0.6 | average SUVmax (normal adjacent tissues; nearby normal grey matter): 1.1 | PiB activity (normal adjacent tissues; nearby normal white matter, FIG. 5): high level of nonspecific PiB activity | average background SUVmax (normal adjacent tissues; surrounding cerebrospinal fluid): 0.2 | fluorescent staining of meningioma tissue [2, 7]: stained brightly positive; also recorded: unique staining pattern | fluorescent staining of meningioma tissue ([2]; 100 nM stain, 5 μm sections, fluorescent microscopy, listed as Formula (V)): accumulate | location of staining within meningioma cells [2]: within the nucleus of the cells of the meningiomas
